# Laboratory results: patent US20250326744A1, “PIPERAZINE DERIVATIVE OR SALT THEREOF, AND PHARMACEUTICAL COMPOSITION” (priority 2022, published 2025)
# Structures can show the parent of a compound that is named as a salt.
# How the values were obtained:
# mexB (EC) strain = assay: Efflux ability inhibition effect on drug efflux pump MexB (Test Examples 1 and 3): proliferation (OD595) of mexB (EC) strain with EM or LVFX at 1/4 MIC, EC75; assay type: cell-based, Escherichia coli; conditions: Table 53, Test Example 3, same manner as Test Example 1; for EC75, mexB (EC) strain, EM: combined with EM at 1/4 MIC; for EC75, mexB (EC) strain, LVFX: combined with LVFX at 1/4 MIC
# Method: The efflux ability inhibition effect of the test compound on the drug efflux pump was evaluated using the bacterial proliferative ability in the presence of EM or LVFX as an index.
# EM is a macrolide antibacterial agent and is a drug that is discharged outside the bacteria by MexB and MexY LVFX is a quinolone antibacterial agent and is a drug that is discharged outside the bacteria by MexB and MexY In a case where the test compound has an efflux ability inhibitory ability against the drug efflux pump, the proliferation of bacteria is suppressed by the combined use of EM or LVFX and the test compound, as compared with the case where EM or LVFX is used alone.
# A mutant strain (hereinafter, referred to as an “mexB (EC) strain”) obtained by transferring the genes of the main multidrug efflux system MexAB-OprM of Pseudomonas aeruginosa described in Nature, 2013, Vol. 500, pp. 102 to 106 as a plasmid into Escherichia coli strains in which the acrB and tolC genes of the multidrug efflux system AcrAB-TolC were deleted as described in Journal of Infection and Chemotherapy 2008, Vol. 14, pp. 23 to 29, and a gene transfer strain (hereinafter, referred to as an “mexY (EC) strain”) of another main multidrug efflux system MexXY-OprM of Pseudomonas aeruginosa were used for the evaluation of test compounds.
# In the mexB (EC) strain, an expression level of MexB of the drug efflux pump is accelerated, and in the mexY (EC) strain, an expression level of MexY of the drug efflux pump is accelerated.
# For culturing each Escherichia coli strain, a 96-well plate (amount of culture medium per well: 100 μL) was used and Luria-Bertani broth (LB) culture medium was used. The inoculation amount of the bacteria was set to 10^4 to 5 CFU/well.
# The mexB (EC) strain and the mexY (EC) strain were cultured for 16 to 20 hours in a culture medium to which EM or LVFX and test compounds at various concentrations (0 to 800 μM) were added, and the proliferation of the bacterial strains was evaluated by optical turbidity at 595 nm (OD595). The concentration of the antibacterial agents (EM and LVFX) in the culture medium were each set to ¼ of the minimum inhibitory concentration (MIC) (hereinafter, referred to as ¼ MIC) of the single antibacterial agent.
# The proliferation of bacteria in a case where the antibacterial agent was added at the concentration of ¼ MIC in a case where the test compound was not added was measured, and compared with the proliferation of bacteria in a case where the test compound was contained, and the lowest concentration of the test compound at which the proliferation was inhibited by 75% or more was defined as the drug efflux pump inhibitory ability of the test compound as 75% inhibitory effect concentration (EC75).
# The drug efflux pump inhibitory ability of each test compound in a case of being used in combination with the antibacterial agent against the mexB (EC) strain and the mexY (EC) strain was evaluated as follows according to the value of EC75. • S: EC75≤[…] • A: 12.5 μM<EC75≤25 μM • B: 25 μM<EC75≤100 μM • C: […]
# In the same manner as in Test Example 1, the efflux ability inhibition effect of the test compound on the drug efflux pump was evaluated using the bacterial proliferation ability in the presence of EM or LVFX as an index.
# mexB (PA) strain = assay: Combinational effect with antibacterial agent against Pseudomonas aeruginosa (Test Examples 2 and 4): mexB (PA) strain with LVFX, TC or AZT at 1/4 MIC, EC99; assay type: cell-based; conditions: mexB (PA) strain, Test Example 4; for EC99, combinational effect with AZT, mexB (PA): combined with AZT at 1/4 MIC; for EC99, combinational effect with LVFX, mexB (PA): combined with LVFX at 1/4 MIC; for EC99, combinational effect with TC, mexB (PA): combined with TC at 1/4 MIC
# Method in brief: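 EC99 denotes the minimum test-compound concentration (range 0–800 μM) that suppresses ≥99% of growth, measured by OD595, when combined with ¼ MIC levofloxacin (LVFX), tetracycline or aztreonam. The efflux-pump mutant mexB (PA), expressing mainly MexAB-OprM, was inoculated at 10^4–5 CFU/well in CAMHB for 16–20 h.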
# S-3769 strain = assay: Combinational effect with antibacterial agent against Pseudomonas aeruginosa (Test Examples 2 and 4): S-3769 strain with AMK or GM at 1/4 MIC, EC99; assay type: cell-based; conditions: S-3769 strain, Test Example 4; for EC99, combinational effect with AMK, S-3769 strain: combined with AMK at 1/4 MIC; for EC99, combinational effect with GM, S-3769 strain: combined with GM at 1/4 MIC
# Method in brief: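 EC99, the lowest test-compound concentration inhibiting growth by ≥99% (OD595), was measured with aminoglycoside AMK or GM held at ¼ MIC. Strain S-3769, a MexY-overexpressing clinical isolate, was cultured in CAMHB at 10^4 to 5 CFU/well for 16–20 h; compound range 0–800 μM.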
compound,measurement,setting,value
"CCOc1cccc(F)c1CN1CCN(C(=O)[C@H](N)C2CCN(CCc3cc(Cl)ccc3-c3cn(C)nc3C)CC2)CC1 [Example 500, Hydrobromide of (R)-2-amino-2-(1-(5-chloro-2-(1,3-dimethyl-1H-pyrazol-4-yl)phenethyl)piperidin-4-yl)-1-(4-(2-ethoxy-6-fluorobenzyl)piperazin-1-yl)ethan-1-one]","EC75, mexB (EC) strain, EM",mexB (EC) strain,A (12.5 μM<EC75≤25 μM)
same,"EC99, combinational effect with AZT, mexB (PA)",mexB (PA) strain,C (100 μM<EC99)
same,"EC99, combinational effect with LVFX, mexB (PA)",mexB (PA) strain,C (100 μM<EC99)
same,"EC99, combinational effect with TC, mexB (PA)",mexB (PA) strain,C (100 μM<EC99)
same,"EC99, combinational effect with AMK, S-3769 strain",S-3769 strain,A (12.5 μM<EC99≤25 μM)
same,"EC99, combinational effect with GM, S-3769 strain",S-3769 strain,A (12.5 μM<EC99≤25 μM)
"CCOc1cccnc1CN1CCN(C(=O)[C@H](N)C2CCN(CCc3cc(Cl)ccc3-c3ccccc3)CC2)CC1 [Example 508, Hydrobromide of (R)-2-amino-2-(1-(2-(4-chloro-[1,1-biphenyl]-2-yl)ethyl)piperidin-4-yl)-1-(4-((3-ethoxypyridin-2-yl)methyl)piperazin-1-yl)ethan-1-one]","EC75, mexB (EC) strain, EM",mexB (EC) strain,A (12.5 μM<EC75≤25 μM)
same,"EC99, combinational effect with AZT, mexB (PA)",mexB (PA) strain,B (25 μM<EC99≤100 μM)
same,"EC99, combinational effect with LVFX, mexB (PA)",mexB (PA) strain,C (100 μM<EC99)
same,"EC99, combinational effect with TC, mexB (PA)",mexB (PA) strain,B (25 μM<EC99≤100 μM)
same,"EC99, combinational effect with AMK, S-3769 strain",S-3769 strain,S (EC99≤12.5 μM)
same,"EC99, combinational effect with GM, S-3769 strain",S-3769 strain,A (12.5 μM<EC99≤25 μM)
"N[C@@H](C(=O)N1CCN(Cc2ncc3ccccn23)CC1)C1CCN(CCc2cc(Cl)ccc2-c2ccccc2)CC1 [Example 518, Hydrobromide of (R)-2-amino-2-(1-(2-(4-chloro-[1,1-biphenyl]-2-yl)ethyl)piperidin-4-yl)-1-(4-(imidazo[1,5-a]pyridin-3-ylmethyl)piperazin-1-yl)ethan-1-one]","EC75, mexB (EC) strain, LVFX",mexB (EC) strain,A (12.5 μM<EC75≤25 μM)
same,"EC99, combinational effect with AZT, mexB (PA)",mexB (PA) strain,C (100 μM<EC99)
same,"EC99, combinational effect with LVFX, mexB (PA)",mexB (PA) strain,C (100 μM<EC99)
same,"EC99, combinational effect with TC, mexB (PA)",mexB (PA) strain,C (100 μM<EC99)
same,"EC99, combinational effect with AMK, S-3769 strain",S-3769 strain,B (25 μM<EC99≤100 μM)
same,"EC99, combinational effect with GM, S-3769 strain",S-3769 strain,B (25 μM<EC99≤100 μM)
"Cn1ccnc1CN1CCN(C(=O)[C@H](N)C2CCN(CCc3cc(Cl)ccc3-c3ccccc3)CC2)CC1 [Example 525, Hydrobromide of (R)-2-amino-2-(1-(2-(4-chloro-[1,1-biphenyl]-2-yl)ethyl)piperidin-4-yl)-1-(4-((1-methyl-1H-imidazol-2-yl)methyl)piperazin-1-yl)ethan-1-one]","EC75, mexB (EC) strain, LVFX",mexB (EC) strain,B (25 μM<EC75≤100 μM)
same,"EC99, combinational effect with AZT, mexB (PA)",mexB (PA) strain,C (100 μM<EC99)
same,"EC99, combinational effect with LVFX, mexB (PA)",mexB (PA) strain,C (100 μM<EC99)
same,"EC99, combinational effect with TC, mexB (PA)",mexB (PA) strain,C (100 μM<EC99)
same,"EC99, combinational effect with AMK, S-3769 strain",S-3769 strain,C (100 μM<EC99)
same,"EC99, combinational effect with GM, S-3769 strain",S-3769 strain,C (100 μM<EC99)
"C=C(Br)c1ccc(Cl)cc1CCN1CCC([C@@H](N)C(=O)N2CCN(Cc3c(F)cccc3OCC)CC2)CC1 [Example 545, Hydrobromide of (R)-2-amino-2-(1-(2-(1-bromovinyl)-5-chlorophenethyl)piperidin-4-yl)-1-(4-(2-ethoxy-6-fluorobenzyl)piperazin-1-yl)ethan-1-one]","EC75, mexB (EC) strain, LVFX",mexB (EC) strain,A (12.5 μM<EC75≤25 μM)
same,"EC99, combinational effect with AZT, mexB (PA)",mexB (PA) strain,B (25 μM<EC99≤100 μM)
same,"EC99, combinational effect with LVFX, mexB (PA)",mexB (PA) strain,B (25 μM<EC99≤100 μM)
same,"EC99, combinational effect with TC, mexB (PA)",mexB (PA) strain,B (25 μM<EC99≤100 μM)
same,"EC99, combinational effect with AMK, S-3769 strain",S-3769 strain,S (EC99≤12.5 μM)
same,"EC99, combinational effect with GM, S-3769 strain",S-3769 strain,S (EC99≤12.5 μM)
"CCOc1cccc(F)c1CN1CCN(C(=O)[C@H](N)C2CCN(CCc3cc(Cl)ccc3C#Cc3ccccc3)CC2)CC1 [Example 546, Hydrobromide of (R)-2-amino-2-(1-(5-chloro-2-(phenylethynyl)phenethyl)piperidin-4-yl)-1-(4-(2-ethoxy-6-fluorobenzyl)piperazin-1-yl)ethan-1-one]","EC75, mexB (EC) strain, EM",mexB (EC) strain,A (12.5 μM<EC75≤25 μM)
same,"EC75, mexB (EC) strain, LVFX",mexB (EC) strain,A (12.5 μM<EC75≤25 μM)
same,"EC99, combinational effect with AZT, mexB (PA)",mexB (PA) strain,C (100 μM<EC99)
same,"EC99, combinational effect with LVFX, mexB (PA)",mexB (PA) strain,C (100 μM<EC99)
same,"EC99, combinational effect with TC, mexB (PA)",mexB (PA) strain,A (12.5 μM<EC99≤25 μM)
same,"EC99, combinational effect with AMK, S-3769 strain",S-3769 strain,S (EC99≤12.5 μM)
same,"EC99, combinational effect with GM, S-3769 strain",S-3769 strain,S (EC99≤12.5 μM)
"CCOc1cccc(F)c1CN1CCN(C(=O)[C@H](N)C2CCN(CCc3cc(-c4ccccc4)ccc3Cl)CC2)CC1 [Example 566, Hydrobromide of (R)-2-amino-2-(1-(2-(4-chloro-[1,1-biphenyl]-3-yl)ethyl)piperidin-4-yl)-1-(4-(2-ethoxy-6-fluorobenzyl)piperazin-1-yl)ethan-1-one]","EC75, mexB (EC) strain, EM",mexB (EC) strain,A (12.5 μM<EC75≤25 μM)
same,"EC99, combinational effect with AZT, mexB (PA)",mexB (PA) strain,B (25 μM<EC99≤100 μM)
same,"EC99, combinational effect with LVFX, mexB (PA)",mexB (PA) strain,B (25 μM<EC99≤100 μM)
same,"EC99, combinational effect with TC, mexB (PA)",mexB (PA) strain,B (25 μM<EC99≤100 μM)
same,"EC99, combinational effect with AMK, S-3769 strain",S-3769 strain,S (EC99≤12.5 μM)
same,"EC99, combinational effect with GM, S-3769 strain",S-3769 strain,S (EC99≤12.5 μM)
"Cl.N[C@@H](C(=O)N1CCN(Cc2c(O)cccc2Cl)CC1)C1CCN(CCc2cc(Cl)ccc2-c2ccccc2)CC1 [Example 574, Hydrochloride of (R)-2-amino-1-(4-(2-chloro-6-hydroxybenzyl)piperazin-1-yl)-2-(1-(2-(4-chloro-[1,1-biphenyl]-2-yl)ethyl)piperidin-4-yl) ethan-1-one]","EC75, mexB (EC) strain, LVFX",mexB (EC) strain,S (EC75≤12.5 M)
same,"EC99, combinational effect with AZT, mexB (PA)",mexB (PA) strain,A (12.5 μM<EC99≤25 μM)
same,"EC99, combinational effect with LVFX, mexB (PA)",mexB (PA) strain,A (12.5 μM<EC99≤25 μM)
same,"EC99, combinational effect with TC, mexB (PA)",mexB (PA) strain,A (12.5 μM<EC99≤25 μM)
same,"EC99, combinational effect with AMK, S-3769 strain",S-3769 strain,A (12.5 μM<EC99≤25 μM)
same,"EC99, combinational effect with GM, S-3769 strain",S-3769 strain,B (25 μM<EC99≤100 μM)
"CSc1ccccc1CN1CCN(C(=O)[C@H](N)C2CCN(CCc3cc(Cl)ccc3-c3cccc(O)c3Cl)CC2)CC1.Cl [Example 613, Hydrochloride of (R)-2-amino-2-(1-(2-(2′,4-dichloro-3′-hydroxy-[1,1-biphenyl]-2-yl)ethyl)piperidin-4-yl)-1-(4-(2-(methylthio)benzyl)piperazin-1-yl) ethan-1-one]","EC75, mexB (EC) strain, LVFX",mexB (EC) strain,S (EC75≤12.5 M)
same,"EC99, combinational effect with AZT, mexB (PA)",mexB (PA) strain,S (EC99≤12.5 μM)
same,"EC99, combinational effect with LVFX, mexB (PA)",mexB (PA) strain,S (EC99≤12.5 μM)
same,"EC99, combinational effect with TC, mexB (PA)",mexB (PA) strain,S (EC99≤12.5 μM)
same,"EC99, combinational effect with AMK, S-3769 strain",S-3769 strain,S (EC99≤12.5 μM)
same,"EC99, combinational effect with GM, S-3769 strain",S-3769 strain,A (12.5 μM<EC99≤25 μM)
